For eleven molecules, EC50 results are on record in US7015329B2 (Janssen Pharmaceutica N. V., priority 2003, dated 2006).

What all share (format): cell-based
Holding throughout (conditions): Table 1; HEK293 cells co-transfected with PPAR LBD-GAL4 and GAL4 (UAS) luciferase reporter, 18–24 hrs

For experiment [1], the target named is T1, PPAR alpha (Homo sapiens, UniProt Q07869).
T1 construct: expressed in transfected cells; host or cells: HEK293
T1 sequence (Q07869 239-466 limits assumed): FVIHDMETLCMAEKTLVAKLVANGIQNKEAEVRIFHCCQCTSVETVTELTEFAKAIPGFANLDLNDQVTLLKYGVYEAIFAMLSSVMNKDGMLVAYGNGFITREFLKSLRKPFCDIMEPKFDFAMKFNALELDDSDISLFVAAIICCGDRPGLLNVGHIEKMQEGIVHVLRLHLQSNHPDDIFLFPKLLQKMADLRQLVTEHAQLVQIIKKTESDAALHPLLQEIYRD
Put plainly: Transfection assay for PPAR receptors (GAL4-LBD luciferase reporter), PPAR alpha. On the procedure:
(§1) Transfection Assay Method for PPAR Receptors
(§2) HEK293 cells were grown in DMEM/F12 medium supplemented with 10% FBS and glutamine (Invitrogen) and incubated in a 5% CO2 incubator at 37° C. The cells were co-transfected using DMRIE-C reagent (Invitrogen) in serum free medium (Opti-MEM, Invitrogen) with two mammalian expression plasmids, one containing the DNA sequence coding for the ligand binding domains of either PPARαg or d fused to the yeast GAL4 DNA binding domain and the other containing the promoter sequence of the yeast GAL4 (UAS) fused to the firefly luciferase cDNA reporter. The next day, the medium was changed to DMEM/F12 medium supplemented with 5% charcoal treated serum (Hyclone) and glutamine. After 6 hrs the cells were trypsinized and seeded at a density of 50,000 cells/well into 96 well plates and incubated overnight as above. The cells were then treated with -test compounds or vehicle and incubated for 18–24 hrs as above. Luciferase reporter activity was measured using the Steady-Glo Luciferase Assay Kit from Promega. DMRIE-C Reagent was purchased from GIBCO Cat. No.10459-014. OPTI-MEM I Reduced Serum Medium was purchased from GIBCO (Cat. No. 31985). Steady-Glo Luciferase Assay Kit was purchased from Promega (Part#E254B).
A variety of example compounds have been made and tested, with a range of in vitro results. Below are representative compounds and data; in some cases, where multiple EC50's are shown, multiple measurements were taken. Naturally, different compounds in Formula (I) may have not have activities identical to any one compound below.
A general note: Reporter assays use an easily measured gene product as a stand-in for the process of interest.

For experiment [2], the target named is T2, PPAR gamma (Homo sapiens, UniProt P37231).
T2 construct: expressed in transfected cells; host or cells: HEK293
T2 sequence (P37231 238-503 limits assumed): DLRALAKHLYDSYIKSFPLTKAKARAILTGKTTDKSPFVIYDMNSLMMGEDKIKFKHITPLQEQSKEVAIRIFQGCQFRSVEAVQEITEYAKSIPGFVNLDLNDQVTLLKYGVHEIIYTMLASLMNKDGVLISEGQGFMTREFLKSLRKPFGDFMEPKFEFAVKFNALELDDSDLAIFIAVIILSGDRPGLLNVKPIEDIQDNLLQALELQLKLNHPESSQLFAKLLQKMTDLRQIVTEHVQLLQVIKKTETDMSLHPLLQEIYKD
Put plainly: Transfection assay for PPAR receptors (GAL4-LBD luciferase reporter), PPAR gamma. On the procedure:
as §1
as §2, with “OPTI-MEM I Reduced Serum Medium was purchased from GIBCO (Cat. No. 31985).” left out

The target of experiment [3] is T3, PPAR delta (Homo sapiens, UniProt Q03181).
T3 construct: expressed in transfected cells; host or cells: HEK293
T3 sequence (Q03181 211-439 limits assumed): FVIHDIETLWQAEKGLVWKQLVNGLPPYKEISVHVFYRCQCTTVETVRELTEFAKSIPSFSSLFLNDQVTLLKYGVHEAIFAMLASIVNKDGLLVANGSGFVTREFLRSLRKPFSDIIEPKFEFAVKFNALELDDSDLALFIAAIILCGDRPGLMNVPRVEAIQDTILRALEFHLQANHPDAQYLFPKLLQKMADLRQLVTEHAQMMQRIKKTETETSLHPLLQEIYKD
Put plainly: Transfection assay for PPAR receptors (GAL4-LBD luciferase reporter), PPAR delta. On the procedure:
as §1
as §2, with “OPTI-MEM I Reduced Serum Medium was purchased from GIBCO (Cat. No. 31985).” left out

Broadly, the EC50 is the midpoint of the concentration-response curve. Low values mean higher potency in that assay, high ones lower potency in that assay. On to `Cc1cc(SCc2nc(-c3ccc(C(F)(F)F)c(F)c3)ns2)ccc1OC(C)(C)C(=O)O` [Compound 13, 2-{4-[3-(3-Fluoro-4-trifluoromethyl-phenyl)-[1,2,4]thiadiazol-5-ylmethylsulfanyl]-2-methyl-phenoxy}-2-methyl-propionic acid], for which the EC50 in experiment [1] stood at 34 nM; in experiment [2], 640 nM; in experiment [3], 5.2 nM.
On to `Cc1cc(SCc2nc(-c3ccc(OC(F)(F)F)cc3)ns2)ccc1OC1(C(=O)O)CCCC1` [Compound 14, 1-{2-Methyl-4-[3-(4-trifluoromethoxy-phenyl)-[1,2,4]thiadiazol-5-ylmethylsulfanyl]-phenoxy}-cyclopentanecarboxylic acid], for which the EC50 in experiment [1] is 736 nM; in experiment [2], above 3000 nM; in experiment [3], above 1000 nM.
For `Cc1cc(SCc2nc(-c3ccc(Cl)c(Cl)c3)ns2)ccc1OC1(C(=O)O)CCCC1` [Compound 15, 1-{4-[3-(3,4-Dichloro-phenyl)-[1,2,4]thiadiazol-5-ylmethylsulfanyl]-2-methyl-phenoxy}-cyclopentanecarboxylic acid] the same measures were above 3000 nM, above 3000 nM and above 1000 nM.
For `Cc1cc(SCc2nsc(-c3ccc(C(F)(F)F)cc3)n2)ccc1OC(C)(C)C(=O)O` [Compound 16, 2-Methyl-2-{2-methyl-4-[5-(4-trifluoromethyl-phenyl)-[1,2,4]thiadiazol-3-ylmethylsulfanyl]-phenoxy}-propionic acid], the EC50 was 425 nM in experiment [1], above 3000 nM in experiment [2] and 26 nM in experiment [3].
For `Cc1cc(SCc2nsc(-c3ccc(Cl)cc3)n2)ccc1OC(C)(C)C(=O)O` [Compound 18, 2-{4-[5-(4-Chloro-phenyl)-[1,2,4]thiadiazol-3-ylmethylsulfanyl]-2-methyl-phenoxy}-2-methyl-propionic acid] the same measures were above 3000 nM, above 3000 nM and 237 nM.
The matching figures for `Cc1cc(SCc2nsc(-c3ccc(Cl)c(Cl)c3)n2)ccc1OC(C)(C)C(=O)O` [Compound 19, 2-{4-[5-(3,4-Dichloro-phenyl)-[1,2,4]thiadiazol-3-ylmethylsulfanyl]-2-methyl-phenoxy}-2-methyl-propionic acid]: above 3000 nM, above 3000 nM and 229 nM.
Consider `Cc1ccc(-c2nsc(COc3ccc(OC(C)(C)C(=O)O)c(C)c3)n2)cc1Cl` [Compound 20, 2-{4-[3-(3-Chloro-4-methyl-phenyl)-[1,2,4]thiadiazol-5-ylmethoxy]-2-methyl-phenoxy}-2-methyl-propionic acid], for which the results for the EC50 in experiment [1], in experiment [2] and in experiment [3] were 297 nM, above 3000 nM and 148 nM, respectively.
`Cc1cc(OCc2nc(-c3ccc(C(F)(F)F)c(F)c3)ns2)ccc1OC(C)(C)C(=O)O` [Compound 21, 2-{4-[3-(3-Fluoro-4-trifluoromethyl-phenyl)-[1,2,4]thiadiazol-5-ylmethoxy]-2-methyl-phenoxy}-2-methyl-propionic acid]: the results for the EC50 in experiment [1], in experiment [2] and in experiment [3] were 85 nM, above 3000 nM and 3 nM, respectively.
For `Cc1ccc(-c2nsc(COc3ccc(OC(C)(C)C(=O)O)c(C)c3)n2)cc1C` [Compound 22, 2-{4-[3-(3,4-Dimethyl-phenyl)-[1,2,4]thiadiazol-5-ylmethoxy]-2-methyl-phenoxy}-2-methyl-propionic acid] the same measures were 643 nM, above 3000 nM and 534 nM.
Consider `Cc1cc(OCc2nc(-c3ccc(OC(F)(F)F)cc3)ns2)ccc1OC(C)(C)C(=O)O` [Compound 24, 2-Methyl-2-{2-methyl-4-[3-(4-trifluoromethoxy-phenyl)-[1,2,4]thiadiazol-5-ylmethoxy]-phenoxy}-propionic acid], for which the results for the EC50 in experiment [1], in experiment [2] and in experiment [3] were 93.5 nM, above 3000 nM and 12.3 nM, respectively.
The matching figures for `Cc1cc(OCc2nc(-c3ccc(OC(F)(F)F)c(Cl)c3)ns2)ccc1OC(C)(C)C(=O)O` [Compound 25]: 96.8 nM, above 3000 nM and 13 nM.
